From PubChem BioAssay (NCI)
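A five-concentration, 48-hour dose response in 96-well plates underlies each endpoint, interpolated linearly between surrounding concentrations. Definition used: TGI = concentration required for complete inhibition of growth.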

Key:
Test in all cases: NCI tumour cell line growth inhibition, 48 h
786-0 renal = test system: 786-0 renal
A498 renal = test system: A498 renal
A549 NSCLC = test system: A549 NSCLC
ACHN renal = test system: ACHN renal
BT-549 breast = test system: BT-549 breast
CAKI-1 renal = test system: CAKI-1 renal
CCRF-CEM leukemia = test system: CCRF-CEM leukemia
COLO 205 colon = test system: COLO 205 colon
DU-145 prostate = test system: DU-145 prostate
EKVX NSCLC = test system: EKVX NSCLC
HCC-2998 colon = test system: HCC-2998 colon
HCT-116 colon = test system: HCT-116 colon
HCT-15 colon = test system: HCT-15 colon
HL-60(TB) leukemia = test system: HL-60(TB) leukemia
HOP-62 NSCLC = test system: HOP-62 NSCLC
HOP-92 NSCLC = test system: HOP-92 NSCLC
HS 578T breast = test system: HS 578T breast
HT29 colon = test system: HT29 colon
IGROV1 ovarian = test system: IGROV1 ovarian
K-562 leukemia = test system: K-562 leukemia
KM12 colon = test system: KM12 colon
LOX IMVI melanoma = test system: LOX IMVI melanoma
M14 melanoma = test system: M14 melanoma
MCF7 breast = test system: MCF7 breast
MDA-MB-231 breast = test system: MDA-MB-231 breast
MDA-MB-435 = test system: MDA-MB-435
MDA-N = test system: MDA-N
MOLT-4 leukemia = test system: MOLT-4 leukemia
NCI-H226 lung = test system: NCI-H226 lung
NCI-H23 lung = test system: NCI-H23 lung
NCI/ADR-RES ovarian = test system: NCI/ADR-RES ovarian
OVCAR-3 ovarian = test system: OVCAR-3 ovarian
OVCAR-4 ovarian = test system: OVCAR-4 ovarian
OVCAR-5 ovarian = test system: OVCAR-5 ovarian
OVCAR-8 ovarian = test system: OVCAR-8 ovarian
PC-3 prostate = test system: PC-3 prostate
RXF 393 renal = test system: RXF 393 renal
SF-268 CNS = test system: SF-268 CNS
SK-MEL-2 melanoma = test system: SK-MEL-2 melanoma
SK-MEL-28 melanoma = test system: SK-MEL-28 melanoma
SK-MEL-5 melanoma = test system: SK-MEL-5 melanoma
SK-OV-3 ovarian = test system: SK-OV-3 ovarian
SN12C renal = test system: SN12C renal
SNB-19 CNS = test system: SNB-19 CNS
SNB-75 CNS = test system: SNB-75 CNS
SW-620 colon = test system: SW-620 colon
T-47D breast = test system: T-47D breast
TK-10 renal = test system: TK-10 renal
U251 CNS = test system: U251 CNS
UACC-257 melanoma = test system: UACC-257 melanoma
UACC-62 melanoma = test system: UACC-62 melanoma
UO-31 renal = test system: UO-31 renal
MALME-3M melanoma = test system: MALME-3M melanoma
NCI-H460 lung = test system: NCI-H460 lung
NCI-H522 lung = test system: NCI-H522 lung
RPMI-8226 leukemia = test system: RPMI-8226 leukemia
SF-295 CNS = test system: SF-295 CNS
SF-539 CNS = test system: SF-539 CNS
SR leukemia = test system: SR leukemia

Cc1ccc2nc(N/N=C/c3sccc3C)cc(C)c2c1
TGI (786-0 renal): > 100 µM | TGI (A498 renal): > 100 µM | TGI (A549 NSCLC): > 100 µM | TGI (ACHN renal): > 100 µM | TGI (BT-549 breast): > 100 µM | TGI (CAKI-1 renal): > 100 µM | TGI (CCRF-CEM leukemia): > 100 µM | TGI (COLO 205 colon): > 100 µM | TGI (DU-145 prostate): > 100 µM | TGI (EKVX NSCLC): > 100 µM | TGI (HCC-2998 colon): > 100 µM | TGI (HCT-116 colon): > 100 µM | TGI (HCT-15 colon): > 100 µM | TGI (HL-60(TB) leukemia): > 100 µM | TGI (HOP-62 NSCLC): > 100 µM | TGI (HOP-92 NSCLC): > 100 µM | TGI (HS 578T breast): > 100 µM | TGI (HT29 colon): > 100 µM | TGI (IGROV1 ovarian): > 100 µM | TGI (K-562 leukemia): > 100 µM | TGI (KM12 colon): > 100 µM | TGI (LOX IMVI melanoma): > 100 µM | TGI (M14 melanoma): > 100 µM | TGI (MCF7 breast): > 100 µM | TGI (MDA-MB-231 breast): 62.2 µM | TGI (MDA-MB-435): > 100 µM | TGI (MDA-N): > 100 µM | TGI (MOLT-4 leukemia): > 100 µM | TGI (NCI-H226 lung): > 100 µM | TGI (NCI-H23 lung): > 100 µM | TGI (NCI/ADR-RES ovarian): > 100 µM | TGI (OVCAR-3 ovarian): > 100 µM | TGI (OVCAR-4 ovarian): > 100 µM | TGI (OVCAR-5 ovarian): > 100 µM | TGI (OVCAR-8 ovarian): > 100 µM | TGI (PC-3 prostate): > 100 µM | TGI (RXF 393 renal): > 100 µM | TGI (SF-268 CNS): > 100 µM | TGI (SK-MEL-2 melanoma): > 100 µM | TGI (SK-MEL-28 melanoma): > 100 µM | TGI (SK-MEL-5 melanoma): > 100 µM | TGI (SK-OV-3 ovarian): > 100 µM | TGI (SN12C renal): > 100 µM | TGI (SNB-19 CNS): > 100 µM | TGI (SNB-75 CNS): > 100 µM | TGI (SW-620 colon): > 100 µM | TGI (T-47D breast): > 100 µM | TGI (TK-10 renal): > 100 µM | TGI (U251 CNS): > 100 µM | TGI (UACC-257 melanoma): > 100 µM | TGI (UACC-62 melanoma): > 100 µM | TGI (UO-31 renal): > 100 µM

O=C(c1ccccc1)N(C(=O)c1ccccc1)c1nc(SCc2ccccc2)ns1
TGI (786-0 renal): 70.5 µM | TGI (A498 renal): 73.9 µM | TGI (A549 NSCLC): > 100 µM | TGI (ACHN renal): > 100 µM | TGI (BT-549 breast): 70.5 µM | TGI (CAKI-1 renal): > 100 µM | TGI (CCRF-CEM leukemia): 65.3 µM | TGI (COLO 205 colon): 40.3 µM | TGI (DU-145 prostate): > 100 µM | TGI (EKVX NSCLC): 68.7 µM | TGI (HCC-2998 colon): 49.9 µM | TGI (HCT-116 colon): 57.3 µM | TGI (HCT-15 colon): 65.3 µM | TGI (HL-60(TB) leukemia): 52.6 µM | TGI (HOP-62 NSCLC): 87.1 µM | TGI (HOP-92 NSCLC): 73.6 µM | TGI (HS 578T breast): 86.3 µM | TGI (HT29 colon): 84.8 µM | TGI (IGROV1 ovarian): > 100 µM | TGI (K-562 leukemia): > 100 µM | TGI (KM12 colon): > 100 µM | TGI (LOX IMVI melanoma): 60.4 µM | TGI (M14 melanoma): 86.1 µM | TGI (MALME-3M melanoma): 74.8 µM | TGI (MCF7 breast): > 100 µM | TGI (MDA-MB-435): 91.8 µM | TGI (MDA-N): 90.5 µM | TGI (MOLT-4 leukemia): 78 µM | TGI (NCI-H226 lung): 78.7 µM | TGI (NCI-H23 lung): 57.3 µM | TGI (NCI-H460 lung): 56.2 µM | TGI (NCI-H522 lung): 61.5 µM | TGI (NCI/ADR-RES ovarian): 78.7 µM | TGI (OVCAR-3 ovarian): 59.4 µM | TGI (OVCAR-4 ovarian): > 100 µM | TGI (OVCAR-5 ovarian): 86.8 µM | TGI (OVCAR-8 ovarian): > 100 µM | TGI (PC-3 prostate): 71 µM | TGI (RPMI-8226 leukemia): 56.6 µM | TGI (RXF 393 renal): > 100 µM | TGI (SF-268 CNS): > 100 µM | TGI (SF-295 CNS): 79.1 µM | TGI (SF-539 CNS): 44.1 µM | TGI (SK-MEL-2 melanoma): 49.5 µM | TGI (SK-MEL-28 melanoma): 93.1 µM | TGI (SK-MEL-5 melanoma): 30.6 µM | TGI (SK-OV-3 ovarian): > 100 µM | TGI (SN12C renal): 64.7 µM | TGI (SNB-19 CNS): > 100 µM | TGI (SNB-75 CNS): 58.1 µM | TGI (SR leukemia): 57.9 µM | TGI (SW-620 colon): > 100 µM | TGI (T-47D breast): > 100 µM | TGI (TK-10 renal): 84.5 µM | TGI (U251 CNS): 37.8 µM | TGI (UACC-257 melanoma): 60.5 µM | TGI (UACC-62 melanoma): 42.9 µM | TGI (UO-31 renal): 23.7 µM
